Reference: patent US20250199015A1, “CYCLIN-DEPENDENT KINASE 2 INHIBITORS FOR MEDICAL TREATMENT” (INCYCLIX BIO, LLC, priority 2022, published 2025)
Where two headings read alike, the source gives them in different places.

Assays:
[1] = tested on: OVCAR-3 cell loaded Hollow Fibers; assay: Mouse hollow fiber assay (CellTiter Glo); format: in vivo, mice; conditions: 75, 100, 150 mg/kg twice daily, Day 16
Method: The mouse hollow fiber assay was conducted using three tumor cell lines, OVCAR-3 (ovarian), MKN-1 (gastric), and HCC-1569 (breast), 1e7 OVCAR-3, 5e6 MKN-1, and 1e7 HCC-1569 cells were loaded into Hollow Fibers, placed in cell culture dishes containing RPMI-1640 with 20% FCS and 1% penicillin/streptomycin, and were equilibrated in an incubator at 37 C, 5% CO2 overnight. On Day 0, three fibers were implanted in two different compartments: subcutaneous and intraperitoneal of twenty-four female NMRI nude mice ages 4-5 weeks. […] Female NMRI nude mice were implanted both subcutaneously and intraperitoneally with HCC-1569, MKN1, and OVCAR3 tumor cell-loaded Hollow Fibers on Day 0. The number of animals alive on Day 0 (implantation) and on Day 16 (necropsy) in each group is shown in parentheses in the legend.
OVCAR-3 cell loaded Hollow Fibers were implanted both subcutaneously and intraperitoneally into female NMRI nude mice on Day 0. Hollow Fibers were collected during necropsy on Day 16 and analyzed using a CellTiter Glo® assay.

MATE2-K = MATE2-K (Homo sapiens, UniProt Q86VL8); assay: SLC transporter inhibition in HEK293 cells
Sequence of MATE2-K (Q86VL8 1-566 isoform Q86VL8-3): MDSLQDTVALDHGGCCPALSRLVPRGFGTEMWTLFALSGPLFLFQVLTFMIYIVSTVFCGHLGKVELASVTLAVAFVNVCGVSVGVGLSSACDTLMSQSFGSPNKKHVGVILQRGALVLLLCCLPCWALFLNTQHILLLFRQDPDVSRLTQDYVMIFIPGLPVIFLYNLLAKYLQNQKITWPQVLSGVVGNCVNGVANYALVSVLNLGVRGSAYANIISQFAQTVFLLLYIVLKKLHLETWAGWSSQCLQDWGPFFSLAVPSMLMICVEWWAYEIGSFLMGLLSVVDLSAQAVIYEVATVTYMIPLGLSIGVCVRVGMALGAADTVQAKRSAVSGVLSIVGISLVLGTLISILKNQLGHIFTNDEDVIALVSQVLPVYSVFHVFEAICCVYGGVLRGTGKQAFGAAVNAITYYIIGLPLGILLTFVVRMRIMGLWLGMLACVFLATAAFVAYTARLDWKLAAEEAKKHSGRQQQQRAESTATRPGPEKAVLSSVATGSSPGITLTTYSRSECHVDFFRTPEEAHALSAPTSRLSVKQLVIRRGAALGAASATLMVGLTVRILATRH

CYP2B6 transcription = assay: CYP induction (transcription); format: in vitro ADME; conditions: up to 3 μM, 24 hours
CYP1A2 transcription = assay: CYP induction (transcription); format: in vitro ADME; conditions: up to 3 μM, 24 hours
[2] = tested on: T47D human breast carcinoma cells; assay: Crystal violet colony assay; format: cell-based
Method: (§1) The T47D human breast carcinoma cell line was grown in RPMI-1640/1× Glutamax/1× Insulin/10% fetal bovine serum and was plated at 10,000 cells/well in Corning 6-well tissue culture treated plates. Cells were incubated at 37° C. for 24 hours prior to addition of treatment. […] Plates were collected at week 2 and 3, at week 3, 2 plates with only palbociclib were switched to combination treatment. The remaining plates were collected at weeks 5 and 8. Collection was performed by washing wells with PBS before incubating 5 minutes with 0.1% crystal violet/20% methanol. Dye was removed and wells washed 4 times with PBS before being scanned at 1200 dpi. Image J was used to count the % area and colony size for each well (FIG. 8F-I). GraphPad Prism was used for analysis. Cells treated with DMSO control retained large colonies that inhabited the majority of the well surface area from week 3 beyond (FIG. 8F).
as §1, with “6 well tissue culture treated plates. The BT474 human breast carcinoma cell line was grown in DMEM/1× Glutamax/1× Insulin/10% fetal bovine serum and was plated at 25,000 cells/well in Corning 6 well” for “6-well”, “CDK4/6i” for “palbociclib”, “well. Graph pad” for “well (FIG. 8F-I). GraphPad Prism”, “analysis.” for “analysis. Cells treated with DMSO control retained large colonies that inhabited the majority of the well surface area from week 3 beyond (FIG. 8F).”
The T47D human breast carcinoma cell line was grown in RPMI-1640/1× Glutamax/1× Insulin/10% fetal bovine serum and was plated at 10,000 cells/well in Corning 6 well tissue culture treated plates. Cells were incubated at 37° C. for 24 hours prior to addition of treatment. […] Plates were collected at weeks 2 and 3. Collection was performed by washing wells with PBS before incubating 5 minutes with 0.1% crystal violet/20% methanol. Dye was removed and wells washed 4 times with PBS before being scanned at 1200 dpi. Image J was used to count the percent area and colony size for each well and Graph pad was used for analysis.

human OAT1 = target: T1, human OAT1 (Homo sapiens, UniProt Q4U2R8); assay: SLC transporter inhibition in HEK293 cells; format: in vitro ADME
T1 construct: expressed in transfected cells; host or cells: HEK293
T1 sequence (Q4U2R8 whole entry): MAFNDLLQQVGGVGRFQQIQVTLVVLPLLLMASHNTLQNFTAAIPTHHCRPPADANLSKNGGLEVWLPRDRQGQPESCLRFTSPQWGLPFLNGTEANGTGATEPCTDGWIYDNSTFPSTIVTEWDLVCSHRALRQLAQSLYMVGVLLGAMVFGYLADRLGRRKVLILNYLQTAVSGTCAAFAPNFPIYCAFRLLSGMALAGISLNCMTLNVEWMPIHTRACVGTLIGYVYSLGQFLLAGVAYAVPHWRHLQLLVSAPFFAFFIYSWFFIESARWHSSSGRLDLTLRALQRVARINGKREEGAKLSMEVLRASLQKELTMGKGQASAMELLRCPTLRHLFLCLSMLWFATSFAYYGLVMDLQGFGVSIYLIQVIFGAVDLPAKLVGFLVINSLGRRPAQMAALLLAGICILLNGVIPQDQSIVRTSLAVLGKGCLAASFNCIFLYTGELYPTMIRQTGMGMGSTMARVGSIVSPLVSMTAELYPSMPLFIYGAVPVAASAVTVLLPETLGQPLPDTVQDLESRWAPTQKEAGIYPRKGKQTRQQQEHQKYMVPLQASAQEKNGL

[3] = target: Human recombinant COX1 (PTGS1) (Homo sapiens, UniProt P23219); assay: COX1 enzyme inhibition (fluorimetry); format: biochemical
Sequence of Human recombinant COX1 (PTGS1) (P23219 24-599): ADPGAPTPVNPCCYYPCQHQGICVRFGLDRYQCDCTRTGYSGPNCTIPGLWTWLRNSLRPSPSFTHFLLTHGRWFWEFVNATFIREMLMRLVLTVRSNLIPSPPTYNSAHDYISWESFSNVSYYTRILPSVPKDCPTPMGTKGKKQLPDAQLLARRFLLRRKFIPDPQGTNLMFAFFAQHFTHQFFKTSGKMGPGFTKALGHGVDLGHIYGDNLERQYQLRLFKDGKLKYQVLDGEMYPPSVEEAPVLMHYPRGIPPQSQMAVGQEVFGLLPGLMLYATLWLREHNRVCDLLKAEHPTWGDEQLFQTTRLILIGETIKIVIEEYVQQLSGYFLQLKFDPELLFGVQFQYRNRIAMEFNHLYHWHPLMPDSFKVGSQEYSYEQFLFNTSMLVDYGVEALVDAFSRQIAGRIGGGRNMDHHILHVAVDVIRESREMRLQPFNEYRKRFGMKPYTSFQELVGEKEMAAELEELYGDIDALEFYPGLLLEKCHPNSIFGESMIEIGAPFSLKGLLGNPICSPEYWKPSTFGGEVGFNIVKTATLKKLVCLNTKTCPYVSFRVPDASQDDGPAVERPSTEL

human OATP1B3 = target: T2, human OATP1B3 (Homo sapiens, UniProt Q9NPD5); assay: SLC transporter inhibition in HEK293 cells; format: in vitro ADME
T2 construct: expressed in transfected cells; host or cells: HEK293
T2 sequence (Q9NPD5 1-702): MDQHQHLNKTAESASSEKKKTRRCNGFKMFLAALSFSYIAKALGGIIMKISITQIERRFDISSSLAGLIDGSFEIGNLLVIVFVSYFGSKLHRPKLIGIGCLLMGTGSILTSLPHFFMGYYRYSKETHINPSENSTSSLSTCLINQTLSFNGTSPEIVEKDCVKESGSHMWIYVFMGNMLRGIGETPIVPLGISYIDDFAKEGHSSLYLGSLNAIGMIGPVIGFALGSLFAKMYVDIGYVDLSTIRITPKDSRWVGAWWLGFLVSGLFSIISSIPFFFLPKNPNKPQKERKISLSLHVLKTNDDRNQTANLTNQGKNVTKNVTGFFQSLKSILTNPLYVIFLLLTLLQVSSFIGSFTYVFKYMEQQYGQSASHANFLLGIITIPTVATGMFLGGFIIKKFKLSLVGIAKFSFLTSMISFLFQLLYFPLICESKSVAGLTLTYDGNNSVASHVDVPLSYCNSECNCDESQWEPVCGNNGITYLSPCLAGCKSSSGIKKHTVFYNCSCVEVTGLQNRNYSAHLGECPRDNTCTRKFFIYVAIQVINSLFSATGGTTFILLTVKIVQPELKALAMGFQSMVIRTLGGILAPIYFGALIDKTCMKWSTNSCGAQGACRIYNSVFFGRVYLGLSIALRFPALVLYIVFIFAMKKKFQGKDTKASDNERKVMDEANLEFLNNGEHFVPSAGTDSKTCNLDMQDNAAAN

NS(=O)(=O)c1ccc(Nc2ncc3cc4n(c3n2)C2(CCCCC2)C(=O)NN4)cc1 [Compound I]
tumor bioluminescence signal (CellTiter Glo) of Hollow Fibers [1]: significant reduction | IC50 (MATE2-K): 740 nM | Maximum Percent inhibition (MATE2-K; MATE2-K, HEK293 cells): 69% | IC50 (MATE2-K; human): 740 nM | induction of CYP2B6 transcription (CYP2B6 transcription): no observed induction | induction of CYP1A2 transcription (CYP1A2 transcription): no observed induction | growth with combination of fulvestrant and Compound I ([2]; 100 nM Compound I + 1 nM Fulvestrant, weeks 2 and 3): reduced growth of cells | growth with both Compound I and a CDK4/6i ([2]; 300 nM each, 8 weeks): no noticeable growth after 8 weeks | time to CDK4/6i resistance ([2]; 300 nM with palbociclib or abemaciclib, up to 8 weeks): prolonged the time to CDK4/6i resistance | colony size and percent plate area ([2]; 300 nM, weeks 2-8): substantially reduced colony size | OAT1 inhibition (human OAT1): did not inhibit | Maximum Percent inhibition (human OAT1; OAT1, HEK293 cells): 30% | IC50 [3]: 260 nM | Maximum Percent inhibition (human OATP1B3; OATP1B3, HEK293 cells): 91% | IC50 (human OATP1B3; OATP1B3, HEK293 cells, read-out: IC50): 6220 nM | IC50 (human OATP1B3; read-out: OATP1B3 IC50): 6220 nM
